Source: patent publication US10143748B2, “B-cell reduction using CD37-specific and CD20-specific binding molecules” (Emergent Product Development Seattle, LLC, priority 2005, dated 2018)

How the values were obtained:
C1q = biological target: T1, C1q (Homo sapiens, UniProt P02745+P02746+P02747); assay: FITC C1q binding to reagent-coated Ramos B cells in normal human serum; settings: normal human serum 1.25-10%, FIG. 3A
T1 construct: normal human serum (NHS, #A113, Quidel Corp., San Diego, Calif.); tissue Quidel Corp. A113; host or cells: normal human serum (purchased), added to reagent-coated Ramos B cells
Method: C1q binding studies were performed as previously described (Cragg et al., Blood 2004, 103:2738-2743). Briefly, Ramos B-cells in Iscoves media (#12440-053, Gibco/Invitrogen, Grand island, NY) with no serum were plated in 96-well V bottom plates at 5×10^5/well in 100 μl. Cells were incubated with reagents for 15 minutes at 37° C., and normal human serum (NHS, #A113, Quidel Corp., San Diego, Calif.) diluted in Iscoves was then added at a volume of 50 μl to each well for a final concentration of 10, 5, 2.5, or 1.25% human serum. Fifty μl of media was added to the control well. For cobra venom factor (CVF) experiments, CVF was added to human serum complement samples at 20 Units CVF/mL of serum for 90 minutes at 37° C. prior to addition of serum to complement assays, and the dilution of serum by CVF accounted for when making sample dilutions.
The cells plus complement source were incubated for an additional 5 minutes at 37° C., and washed 2 times with cold PBS (#14040-133, Gibco/Invitrogen, Grand Island, N.Y.) via centrifugation and resuspended in 100 μl of PBS. Fifty μl from each well was transferred to a second plate for second step control staining. […] Samples were washed, resuspended in cold PBS, and read immediately on a FACsCalibur flow cytometer and analyzed with Cell Quest software (Becton Dickinson, San Jose, Calif.).

DHL-4 B cells = assay: CDC assay on DHL-4 B cells; format: cell-based; settings: FIG. 7
Method: Cells were suspended in Iscoves (#12440-053, Gibco/Invitrogen, Granland, N.Y.) at 5×10E^5 cells/well in 75 μl. […] Binding reactions were allowed to proceed for 45 minutes prior to centrifugation and washing in serum free Iscoves. Cells were resuspended in Iscoves with human serum (#A113, Quidel, San Diego, Calif.) at the indicated concentrations. The cells were incubated 60 minutes at 37° C. Cells were washed by centrifugation and resuspended in 125 μl PBS with 2% FBS (#16140-071, Gibco, Invitrogen, Grand Island, N.Y.), staining media. The cells were transferred to FACS cluster tubes (#4410, CoStar, Corning, N.Y.) and 125 μl staining media with 5 μl propidium iodide (PI, #P-16063, Molecular Probes, Eugene Oreg.) was added. Samples were incubated 15 minutes at room temperature in the dark prior to analysis by flow cytometry using a FACsCalibur and CellQuest software (Becton Dickinson).

BJAB cells = assay: Annexin V/PI apoptosis analysis, BJAB; format: cell-based
Method: Experiments examining the effect of B cell targeted SMIPS on B cell line apoptosis were performed. Each SMIP was tested individually and then in combination. Samples were analyzed at both 24 and 48 hours after initiation of incubation reactions. […] In addition, 20 μg/mL goat anti-human IgG was added to reactions in order to cross link reagents on the cell surface. Cells were then stained with Annexin V-FITC and propidium iodide using the BD Pharmigen Apoptosis Detection Kit I (#556547), and processed according to kit instructions. Briefly, cells were washed twice with cold PBS and resuspended in “binding buffer” at 1×10^6 cells/mL. One hundred microliters of the cells in binding buffer were then stained with 5 μl of Annexin V-FITC and 5 μl of propidium iodide. The cells were gently vortexed and incubated in the dark at room temperature for 15 minutes. Four hundred microliters of binding buffer was then added to each sample. They were then read and analyzed on a FACsCalibur (Becton Dickinson) instrument using Cell Quest software (Becton Dickinson).

[1] = system: CD19+ primary CLL B cells; assay: tyrosine phosphorylation, 2D gel anti-phosphotyrosine immunoblot; format: cell-based, human; settings: 5 ug/ml, 10 minutes, then crosslinker 25 ug/ml 5 minutes, FIG. 29
Method: Freshly isolated CD19+ cells (−50−100×106) from CLL patients were suspended at a concentration of 5×10^6/ml PBS. Cells were then incubated for 10 minutes at 37° C., 5% CO2, with control, trastuzumab (herceptin), or TRU-016 at a final concentration of 5 ug/ml. Cells were spun down, supernatant was removed, and cells were resuspended in fresh PBS of initial volume. Goat anti-human Fc fragment specific crosslinker (25 ug/ml) was added and cells were incubated for an additional 5 minutes. Cells were again spun down, supernatant was removed, and cells were lysed in 1 ml of RIPA lysis buffer with protease and phosphatase inhibitors (10 mM Tris, ph7.4, 150 mM NaCl,1% Triton X-100, 1% deoxycholic acid, 0.1% SDS and 5 mM EDTA all final concentrations. Sigma protease inhibitor cocktail cat#P-8340; Sigma phosphatase inhibitor cocktail: serine/threonine phosphatase inhibitor cocktail pat#P-2850; and tyrosine phosphatase inhibitor cat#P-5726;PMSF (100 mM) were all used. The inhibitors were added to the lysis buffer immediately prior to use at a 1:100 dilution. Protein concentration in the lysates was quantified by the bicin choninic acid (BCA) method (Pierce, Rockford, Ill.). The control arid treated protein samples (SOug total protein) were separated by two-dimensional gel electrophoresis (pH Range 3-10) (1st Dimension) and 10% SDS-PAGE (2nd Dimension). […]

Ramos tumors = assay: Ramos tumor xenograft in nude mice; format: in vivo, mouse
Method: Mouse tumor xenograft studies exploring combination therapies were performed using nude mice (Harlan) and Ramos or Daudi human tumor lines. Ramos or Daudi tumor cells were grown in T150 flasks in IMDM/10% FBS until they reached 80% confluency. Five million (5×10^6) cells were used as a tumor inoculum per mouse. Cells were injected subcutaneously in the right flank using PBS in a total volume of 0.1 ml or 5.0×1 0^7/ml. Nude mice were allowed to develop tumors and sorted into groups based on tumor size/volume. For each treatment group, 12 mice with a mean tumor volume of approximately 222 mm^3 (range =152-296mm^3) were used. Some mean tumor volumes ranging from 237-251 mm^3 were also used. […] Tumor volume was measured daily with calipers until completion of the experiment (sacrifice or regression).
Mouse tumor xenograft studies were performed using nude mice (Harlan) and Ramos or Daudi human tumor lines. Three different studies were performed based on tumor type and tumor size at the time of treatment with the TRU-016 or other test reagent. Ramos or Daudi tumor cells were grown and (5×10^6) cells were injected subcutaneously in the right flank to inoculate each treated mouse with the tumor. Nude mice were allowed to develop tumors and sorted into groups based on tumor size/volume. In the first study, for each treatment group, 12 mice with a mean tumor volume of 155-237 mm^3 were used. […] Tumor volume was measured daily with calipers until completion of the experiment (sacrifice or regression).
Ramos and Daudi tumor cells were separately grown and (5×10^6) cells were injected subcutaneously in the right flank of mice to initiate the formation of mouse tumor xenografts. After tumor development, mice were sorted into groups based on tumor size/volume (day 0). […] Tumor volume was blindly measured three times weekly with calipers until completion of the experiment (sacrifice or regression).

[2] = system: CD19 and CD40 positive lymphocytes (B cells); assay: depletion of normal B cells from human PBMC cultures; format: cell-based; settings: 1 μg/ml, 24 to 72 hours, FIG. 20C
Method: Human PBMCs were isolated from whole blood by LSM density centrifugation. […] A portion of the incubation reaction was harvested at 48 hours and again at 72 hours after initiation of the experiment. PBMCs were washed and incubated with FITC anti-CD19, FITC anti-CD40, or FITC anti-CD3 for 45 minutes on ice.

T1 sequence (P02745 23-245): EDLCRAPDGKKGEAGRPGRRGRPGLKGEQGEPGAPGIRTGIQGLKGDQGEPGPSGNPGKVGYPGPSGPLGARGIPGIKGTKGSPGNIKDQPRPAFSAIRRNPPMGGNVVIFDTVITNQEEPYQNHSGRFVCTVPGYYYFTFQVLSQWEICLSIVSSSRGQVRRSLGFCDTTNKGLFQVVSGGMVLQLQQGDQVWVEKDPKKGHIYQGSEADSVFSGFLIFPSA
T1 sequence (P02746 28-253): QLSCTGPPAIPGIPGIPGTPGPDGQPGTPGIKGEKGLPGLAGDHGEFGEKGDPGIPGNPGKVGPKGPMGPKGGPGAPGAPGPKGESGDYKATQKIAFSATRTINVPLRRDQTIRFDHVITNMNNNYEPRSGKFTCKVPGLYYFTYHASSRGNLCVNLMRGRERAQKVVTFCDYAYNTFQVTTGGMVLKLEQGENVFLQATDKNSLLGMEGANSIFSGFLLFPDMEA
T1 sequence (P02747 29-245): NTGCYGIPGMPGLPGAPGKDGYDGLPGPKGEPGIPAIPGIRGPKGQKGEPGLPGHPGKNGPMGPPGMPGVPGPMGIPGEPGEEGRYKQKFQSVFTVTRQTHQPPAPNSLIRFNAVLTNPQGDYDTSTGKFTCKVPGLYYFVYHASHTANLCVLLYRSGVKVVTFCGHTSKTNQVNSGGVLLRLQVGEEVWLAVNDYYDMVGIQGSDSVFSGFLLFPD

Q: What does the source list for “G28-1 scFv VH11S(SSC—P)H WCH2 WCH3 [TRU-016]”?
A: FITC C1q binding (C1q): does not bind well; CDC killing of DHL-4 B cells (DHL-4 B cells): little or no activity alone; Annexin V Positive (BJAB cells; Bjab, 20 μg/mL SMIP, goat anti-human IgG crosslinking): 30.6; effect on apoptosis of cell lines (BJAB cells; in the presence of crosslinking, BJAB, Ramos, Daudi, Table 2): more significant effect on apoptosis of cell lines than TRU-015 alone; tyrosine phosphorylation [1]: induced tyrosine phosphorylation; long-term complete regression of tumors (tumor regression rate) (Ramos tumors; Ramos tumors, 200 μg, pooled data from 3 experiments): 20%; average tumor volume after treatment (Ramos tumors; Ramos, 200 μg/mouse IV days 0, 2, 4, 6, 8, versus huIgG): smaller than that observed using the negative control (huIgG); Median Survival Time (Ramos tumors; established Ramos tumors, 200 μg): 16 days; Percentage of Tumor- Free Mice at Day 90 (Ramos tumors; established Ramos tumors, 200 μg, IV days 0, 2, 4, 6, 8): 20%; survival time / median survival time (Ramos tumors; established Ramos tumors, combination vs TRU-016 p=0.028, vs rituximab p=0.045): inhibition of tumor growth and improved survival times equivalent to rituximab; tumor growth and median survival (Ramos tumors; mice with the smaller Ramos tumors): inhibition of tumor growth and increased median survival times; depletion of B lymphocytes compared to T lymphocytes [2]: capable of specific depletion of CD37 positive B lymphocytes
